According to a melting point compilation (Tetko et al.):

Conditions: a range is the spread between reports

Q: With `COC(=O)CCC(=O)O` as the compound, how does the melting point read?
A: The melting point was 57.5 to 58 °C.

Q: With `CC(=O)Oc1ccc(C(C)=O)cc1` as the compound, how does the melting point read?
A: The melting point was 53 to 54 °C.

Q: For `Cc1c[nH]c2ccccc12`, which melting point is on record?
A: Its melting point is 95 °C.

Q: Which melting point does the source give for `C=CCCCCC` here?
A: Its melting point is -120 to -119 °C.

Q: With `CC(C)C#N` as the compound, how does the melting point read?
A: The melting point was -72 to -71.5 °C.

Q: With `O=C(O)c1c(F)cccc1Cl` as the compound, how does the melting point read?
A: The melting point was 158 to 160 °C.

Q: With `CC(=O)c1ccc([N+](=O)[O-])cc1` as the compound, how does the melting point read?
A: The melting point was 79 to 81.8 °C.

Q: Which melting point does the source give for `Cc1cc(C)nc(N)n1` here?
A: Its melting point is 152 to 153 °C.

Q: Which melting point does the source give for `Cc1cc(C=O)c(C)n1-c1ccccc1` here?
A: The melting point was 88.5 to 89 °C.

Q: Which melting point does the source give for `O=S(=O)(Cl)c1ccc2ccccc2c1` here?
A: The melting point was 76 to 81 °C.

Q: With `CCCCCCCCCCCCCCCCCCCCCCCCCCCCCC` as the compound, how does the melting point read?
A: The melting point was 65.8 to 67 °C.

Q: With `Cc1ccnc(N)c1` as the compound, how does the melting point read?
A: The melting point was 99 to 100 °C.

Q: Which melting point does the source give for `Cc1ccncc1` here?
A: Its melting point is 3 to 3.66 °C.

Q: Which melting point does the source give for `O=C(C(F)(F)F)C(F)(F)F` here?
A: Its melting point is -129 to -125 °C.

Q: With `c1ccc(Nc2ccc(-c3ccc(Nc4ccccc4)cc3)cc2)cc1` as the compound, how does the melting point read?
A: Its melting point is 247 to 248 °C.

Q: Which melting point does the source give for `OCc1ccncc1` here?
A: Its melting point is 53 to 54 °C.

Q: For `O=C1OC(=O)C2C1C1(Cl)C(Cl)=C(Cl)C2(Cl)C1(Cl)Cl` (stereo not drawn), which melting point is on record?
A: Its melting point is 233 to 237 °C.

Q: With `CC(=O)Nc1cccc([N+](=O)[O-])c1` as the compound, how does the melting point read?
A: Its melting point is 152 to 155 °C.

Q: With `CCCCC(=O)c1ccccc1` as the compound, how does the melting point read?
A: The melting point was -9.4 to -9 °C.

Q: With `Cc1cccc(-c2cccc(C)c2)c1` as the compound, how does the melting point read?
A: The melting point was 7 to 9 °C.

Q: Which melting point does the source give for `O=C(O)CCl` here?
A: Its melting point is 61.5 to 63 °C.

Q: Which melting point does the source give for `COC(=O)/C=C/C(=O)OC` here?
A: The melting point was 102 to 104 °C.

Q: For `OCc1ccccc1O`, which melting point is on record?
A: The melting point was 85 to 87 °C.

Q: For `COc1ccc2c(c1)CCCC2=O`, which melting point is on record?
A: Its melting point is 78 to 79 °C.

Q: For `O=C(c1ccccc1)c1ccccc1C(F)(F)F`, which melting point is on record?
A: The melting point was 60 to 61 °C.

Q: For `COP(=S)(OC)Oc1ccc([N+](=O)[O-])cc1`, which melting point is on record?
A: Its melting point is 35.5 to 36 °C.

Q: With `CC12CCC(=O)C=C1CCC1C2CCC2(C)C(C(=O)CO)CCC12` (stereo not drawn) as the compound, how does the melting point read?
A: Its melting point is 142 °C.

Q: Which melting point does the source give for `O=C(O)c1ccccc1I` here?
A: The melting point was 162 to 163 °C.

Q: For `CCOC(=O)CC#N`, which melting point is on record?
A: Its melting point is -23 to -22 °C.

Q: With `O=C(c1ccccc1)c1ccc(-c2ccccc2)cc1` as the compound, how does the melting point read?
A: The melting point was 100 to 101 °C.

Q: Which melting point does the source give for `COc1ccc(C(=O)c2ccc(OC)cc2O)c(O)c1` here?
A: Its melting point is 135 to 140 °C.

Q: Which melting point does the source give for `COc1ccc(OC)c(N)c1` here?
A: Its melting point is 80 to 82.5 °C.

Q: For `Cc1c(O)cccc1O`, which melting point is on record?
A: Its melting point is 118 to 120 °C.

Q: Which melting point does the source give for `O=C(c1ccccc1)c1ccc(Cl)cc1` here?
A: Its melting point is 76 to 77.5 °C.

Q: With `Nc1cc([N+](=O)[O-])cc([N+](=O)[O-])c1` as the compound, how does the melting point read?
A: The melting point was 161 to 163 °C.

Q: For `O=C1OC2(OC=C(c3ccccc3)C2=O)c2ccccc21` (stereo not drawn), which melting point is on record?
A: Its melting point is 154 to 157 °C.

Q: For `OCc1cccc(CO)c1`, which melting point is on record?
A: Its melting point is 57 to 58 °C.

Q: With `O=C1c2ccccc2C(=O)c2cc(Cl)ccc21` as the compound, how does the melting point read?
A: The melting point was 209 to 211 °C.

Q: For `CCCCCCCC(C)O` (stereo not drawn), which melting point is on record?
A: The melting point was -35.5 to -35 °C.

Q: With `C=CS(=O)(=O)c1ccccc1` as the compound, how does the melting point read?
A: The melting point was 68 to 69 °C.

Q: For `CCC(=O)c1cc(F)c(O)c(F)c1`, which melting point is on record?
A: The melting point was 127 to 130 °C.

Q: With `Cc1cc(O)cc(C)c1Cl` as the compound, how does the melting point read?
A: Its melting point is 114 to 115 °C.

Q: With `CCC1(c2ccccc2)CCC(=O)NC1=O` (stereo not drawn) as the compound, how does the melting point read?
A: The melting point was 84 to 87.5 °C.

Q: For `O=C(O)c1ccc([N+](=O)[O-])c([N+](=O)[O-])c1`, which melting point is on record?
A: The melting point was 165 to 166 °C.

Q: For `O=[N+]([O-])c1cc(Cl)ccc1Cl`, which melting point is on record?
A: The melting point was 55 to 56 °C.

Q: Which melting point does the source give for `CC12CCC(C1)C(C)(C)C2O` (stereo not drawn) here?
A: The melting point was 43.5 to 48 °C.

Q: With `c1ccc(-c2ccc3ccccc3n2)cc1` as the compound, how does the melting point read?
A: Its melting point is 83 to 86 °C.

Q: Which melting point does the source give for `CCC(c1ccccc1)c1ccccc1` here?
A: Its melting point is 13.3 to 14 °C.

Q: With `C1CCc2nnnn2CC1` as the compound, how does the melting point read?
A: The melting point was 57.5 to 60 °C.

Q: With `O=C(Nc1ccccc1)c1ccccc1O` as the compound, how does the melting point read?
A: The melting point was 136 to 137 °C.

Q: With `N#CCc1ccc(CC#N)cc1` as the compound, how does the melting point read?
A: The melting point was 95 to 96 °C.

Q: For `COc1cc(C#N)cc(OC)c1OC`, which melting point is on record?
A: Its melting point is 93 to 94 °C.

Q: Which melting point does the source give for `Cc1cccc(C)c1` here?
A: The melting point was -48 to -47 °C.

Q: With `Cc1cc(-c2ccc(N)c(C)c2)ccc1N` as the compound, how does the melting point read?
A: Its melting point is 130 to 132 °C.

Q: For `O=C(Oc1ccccc1)c1ccccc1O`, which melting point is on record?
A: Its melting point is 42 to 43 °C.

Q: With `O=Cc1cccc(C=O)c1` as the compound, how does the melting point read?
A: Its melting point is 87.8 to 89.5 °C.

Q: For `C#CC(C)(O)c1ccccc1` (stereo not drawn), which melting point is on record?
A: Its melting point is 48 to 52.3 °C.

Q: For `c1ccc(OCC2CO2)cc1` (stereo not drawn), which melting point is on record?
A: Its melting point is 3.5 to 4 °C.

Q: Which melting point does the source give for `COC(=O)c1cccc([N+](=O)[O-])c1` here?
A: Its melting point is 78 to 80 °C.

Q: Which melting point does the source give for `O=C(O)CCCCCC(=O)O` here?
A: The melting point was 104 to 106 °C.

Q: Which melting point does the source give for `ClCC1CC1` here?
A: The melting point was -91 to -90.9 °C.

Q: With `c1cc2c3c(c1)CCCN3CCC2` as the compound, how does the melting point read?
A: The melting point was 35 to 40 °C.

Q: Which melting point does the source give for `COc1ccc(C(C)=O)c(OC)c1` here?
A: The melting point was 40 to 41 °C.

Q: With `CCc1cc(C)cc(C)c1` as the compound, how does the melting point read?
A: Its melting point is -84.3 to -84 °C.

Q: Which melting point does the source give for `O=C(CBr)c1ccc(Br)cc1` here?
A: Its melting point is 109 to 111 °C.

Q: With `Oc1c(Cl)cc(Cl)c(Cl)c1Cc1c(O)c(Cl)cc(Cl)c1Cl` as the compound, how does the melting point read?
A: Its melting point is 164 to 166 °C.

Q: Which melting point does the source give for `Cc1ncc[nH]1` here?
A: The melting point was 143 to 144 °C.

Q: For `Cc1c(C(=O)O)cnn1-c1ccccc1`, which melting point is on record?
A: Its melting point is 167 to 168 °C.

Q: For `Cc1ccc(CCl)cc1`, which melting point is on record?
A: The melting point was 4 to 5 °C.

Q: For `CC(C)CC(C)C`, which melting point is on record?
A: The melting point was -123 to -119 °C.

Q: Which melting point does the source give for `O=C1CCCC1` here?
A: Its melting point is -51.9 to -51 °C.

Q: For `Nc1ccc(-c2ccccc2)cc1`, which melting point is on record?
A: The melting point was 53 to 54 °C.

Q: Which melting point does the source give for `CC(=O)Nc1ccc(Cl)cc1` here?
A: The melting point was 178 to 179 °C.

Q: For `COc1cc(NS(=O)(=O)c2ccc(N)cc2)nc(OC)n1`, which melting point is on record?
A: Its melting point is 204 °C.

Q: Which melting point does the source give for `O=C=Nc1cccc(N=C=O)c1` here?
A: The melting point was 48 to 50 °C.

Q: For `CS(C)=O`, which melting point is on record?
A: Its melting point is 18 to 18.5 °C.

Q: With `OC(C(F)(F)F)C(F)(F)F` as the compound, how does the melting point read?
A: Its melting point is -4 to -3 °C.

Q: Which melting point does the source give for `COc1ccc(Cc2nccc3cc(OC)c(OC)cc23)cc1OC` here?
A: The melting point was 147 to 148 °C.

Q: With `O=C(O)Cc1cccc(Cl)c1` as the compound, how does the melting point read?
A: The melting point was 78 to 79 °C.

Q: For `C#CC1(O)CCCC1`, which melting point is on record?
A: The melting point was 25 to 27 °C.

Q: For `CCOC=O`, which melting point is on record?
A: The melting point was -81 to -79.6 °C.

Q: Which melting point does the source give for `BrCCCCCCBr` here?
A: The melting point was -2.3 to 2 °C.

Q: Which melting point does the source give for `CCCS` here?
A: The melting point was -113 °C.
